In patent US8735602B2, “Pharmaceutically acceptable salts of thymodepressin and processes for their manufacture” (Apotex Technologies inc., priority 2006, dated 2014):

Legend:
Type in all cases: physicochemical
[1] = Speciation plot (FIG. 5) calculation of solution pH from experimentally determined pKas; settings: according to the speciation plot calculation
Text: A pharmaceutically acceptable salt of a drug substance is one that is chemically stable and can be used in a pharmaceutical composition. Unlike simple aromatic hydrocarbons, thymodepressin is a dipeptide with multi-functional groups. The dipeptide D-isoglutamyl-D-tryptophan has an alpha amine, two carboxylic acids and an indole nitrogen within the same molecule. An ideal salt should be one that has a solution pH close to about 7 and in the low basic pH range. Through investigations in our laboratory, in the search for a novel salt to address the shortcomings of the disodium salt of D-isoglutamyl-D-tryptophan, the speciation plot (FIG. 5) was used to determine salts with ideal solution pH and solubility that are suitable for pharmaceutical formulations. FIG. 5 is a speciation plot of H-D-iGlu-D-Trp-OH from pH 0 to 12 using experimentally determined pKas. In FIG. 5, LH2=H-D-iGlu-D-Trp-OH, LH=mono carboxylic acid salt, L=dicarboxylic acid salt, and LH3=acid addition salt of H-D-iGlu-D-Trp-OH. The X axis provides the pH of the solution, whereas the Y axis reports the amount of the species present at a particular pH. From our practical experience, we use 6 ml of water per gm of H-D-iGlu-D-Trp-OH for isolation purposes, which corresponds to a concentration of 0.5 M solution.
According to the speciation plot calculation shown in FIG. 5, the diacid form has a pH of about 2.7 to about 3 in solution. The metal salt of formula I wherein M is potassium or lithium; the divalent salt of formula II wherein B is calcium or magnesium has a solution pH close to about 7.
We have applied the speciation plot (FIG. 5) to compute the pH range of the salt forms of the dipeptide H-D-iGlu-D-Trp-OH. […] This is particular ideal for liquid formulation, sublingual tablets, nasal drops and sprays.

[2] = Percent crystallinity by X-ray powder diffraction; settings: XRPD, D8 system with 2D detector; not absolute values
Method: The percent crystallinity is commonly measured as a ratio between the diffraction portion from the crystalline part of the sample, Ic, and the total diffraction from the same sample, IC+B. The values of IC can be obtained after an appropriate subtraction of the scattering portion from the background, IB.
For such kind of analyses, the diffraction is measured as total area under the profile of: • the whole pattern as it is collected (one may correct for the air scattering) −ITOTAL* • the peaks only (IC) after subtraction of the background (correction for the air scattering), • the background only with correction for air scattering −(IB).
However, in this study, due to the technical problems with the D5000 point-detector diffraction system, all the samples were analyzed on a D8 system, equipped with an area, 2D detector, and the above-mentioned approach could not be applied. Therefore, another technique has been developed for measuring the crystallinity of samples analyzed on such system. Only a narrow part of the 2D diffraction image is chosen with a single peak at the centre and a neighbour area where the background will be measured.
All samples were measured for calculation of their crystallinity using a narrow range of 21°-25° with a strongest reflection at […]. The background was subtracted as linear, and an empirical correlation coefficient of 2.5 was applied.

[3] = Hygroscopicity of the freeze-dried solid in air
[4] = Stability of the solid salt
Text: It is extremely hygroscopic and very difficult to weigh for formulation research. In solution, as per the speciation plot (FIG. 5), the pH is above 9.0 and the solution pH must be adjusted to about 7.0 to about 7.4 in a formulation preparation.

In the case of “D-isoglutamyl-D-tryptophan magnesium salt (2:1) [magnesium salt of formula II]”, the pH in solution [1] is reported as “about 7”.

For “D-isoglutamyl-D-tryptophan calcium salt (2:1) [calcium salt of formula II]”, the pH in solution [1] was “about 7” and the percent crystallinity [2] was at most 67%.

With “disodium salt of D-isoglutamyl-D-tryptophan” the hygroscopicity [3] was “extremely hygroscopic turning into a gel in a matter of minutes in air”, the pH in solution [1] was “above 9.0” and the “stability as a solid” value [4] was “less stable chemical entity as a solid”.

For “Calcium Salt of D-isoglutamyl-D-tryptophan (1:2) [Example 8]”, the percent crystallinity [2] was 18-20%.

For `NC(=O)[C@H](N)CCC(=O)N[C@H](Cc1c[nH]c2ccccc12)C(=O)[O-].[K+]` [potassium salt of formula I, D-isoglutamyl-D-tryptophan potassium salt (1:1)], the pH in solution [1] was “about 7”.
